Test results reported in patent US4973576A, “Bisphophonic acid derivatives and pharmaceutical compositions containing the same” (Yamanouchi Pharmaceutical Co., Ltd., priority 1987, dated 1990).
Several values for one entry are separate records, joined by “and”; a condition that tells them apart may be missing. Identical values can stand only once.

What was measured:
[1] = tested on: hypercalcemia induced by administration of parathyroid hormone (PTH); assay: Inhibitory effect on hypercalcemia induced by PTH in rats (serum Ca++); type: in vivo, male Wistar rats; conditions: mean ± S.E.
Description: Rats of hypercalcemia induced by administration of parathyroid hormone (hereinafter referred to as "PTH") were used, and the decrement of the serum calcium amount by administration of the compound was measured.
30 μg/kg of human 1-34 PTH (manufactured by Peptide Laboratory) which was dissolved in a 0.1% BSA (bovine serum albumin)-containing physiological saline (content of the PTH is 6 μg/ml) was intravenously injected in an amount of 30 μg/kg (5 ml/kg as the solution) to 5-week male Wistar rats which had been fasting for 20 hours. Only 0.1% BSA-containing physiological saline was injected to the normal control group in the same manner. 45 minutes after the PTH injection, the rats were etherized and then subjected to celiotomy, whereby the blood was collected from the abdominal cava with a vacuum blood-collecting tube. The blood collected was immediately centrifuged by 3000 rpm, at 4° C. for 10 minutes to isolate the serum. The ionized calcium (Ca^++) concentration in the serum was immediately measured with a Ca^++ meter (Sera 250, manufactured by Horiba Manufacturing Co.).
The compounds of the present invention were dissolved using sodium hydroxide and hydrochloric acid, in physiological saline (pH 7.4), for subcutaneous administration, in such amounts that the dose amounted to 2 ml/kg, and for oral administration, in distilled water (pH 7.4) so that the dose amounted to 5 ml/kg. They were administered 24 or 72 hours before the PTH injection. A physiological saline or a distilled water was administered to the normal control group and the control group, in the same manner. Salmon calcitonin (SCT, manufactured by Armour Co.) was dissolved in physiological saline so that the dose amounted to 2 ml/kg, and then subcutaneously administered 30 minutes before the PTH injection.
The results for each group were expressed in terms of mean±S.E. (standard error) and comparison was made among the groups by testing by one-way analysis of variance. The significance level was taken at 5%.

adjuvant arthritis [2] = assay: Experiment (3)-I: therapeutic effect on adjuvant arthritis in rats; type: in vivo, male Lewis rats; conditions: po
Description: (§1) Specifically, for investigation of the anti-arthritic effect, experimental models of adjuvant arthritis which is resemble to rheumatoid arthritis in human were used in two test methods. In one method to test the therapeutic effect of the compounds, the compounds to be tested were administered to the animals already having the adjuvant arthritis. In the other method to test the prophylactic effect of the compounds, these were administered after the adjuvant administration, and the expression and progress of the resulting arthritis, if any, was observed.
0.1 ml of a suspension of dry dead cells of Mycobacterium butyricum as suspended in liquid paraffin in a proportion of 6 mg/ml was subcutaneously injected to male Lewis rats (7-week) in the tail. After 17 or 18 days, the thickness of the both hind paws was measured. One group comprising six rats in which the arthritis was noticeably observed was isolated. After the grouping day, the compound to be tested was subcutaneously or orally administered once a day for 14 days to the rats. Next day after the last administration, the thickness of the soles of the both hind legs was again measured.
(§2) For the Experiments (3)-I and (3)-II, the compounds of the present invention were dissolved, using sodium hydroxide and hydrochloric acid in physiological saline (pH 7.4), for subcutaneous administration, in such amount that the dose amounted to 2 ml/kg, and for oral administration, in distilled water (pH 7.4) so that the dose amounted to 5 ml/kg; and indometacin (as comparative drug) was suspended in 0.5% methyl cellulose solution so that the dose amounted to 5 ml/kg. Each rat was weighed at the first day of starting the administration of the compound to be tested and at the last day of the administration of the compound, and the difference of the weight there between (ΔB.W.) was obtained.
(§3) The results for each group were expressed in terms of mean ±S.E. (standard error) and comparison was made among the groups by testing by one-way analysis of variance. The significance level was taken at 5%.

[3] = tested on: immobilization-induced atrophy of bone; assay: Inhibition of bone resorption: immobilization-induced (neurectomy) atrophy of bone in rats; type: in vivo, Wistar rats; conditions: for Left humerus Ashed weight / Left humerus Ashed weight / Dry weight / Left humerus Dry weight: 2 weeks
adjuvant arthritis [4] = assay: Experiment (3)-II: prophylactic effect on adjuvant arthritis in rats; type: in vivo, male Lewis rats; conditions: po, 1 mg/kg once a day 21 days
Description: as §1
0.05 ml of the suspension of dry dead bacilli of Mycobacterium butyricum as suspended in liquid paraffin in a proportion of 6 mg/ml was subcutaneously injected to male Lewis rats (6 to 7-week) in the left hind paw. After the adjuvant injection, the compound to be tested was administered to the rats once a day for 21 days. Next day after the last administration, the thickness of the both hind paws of the rats was measured.
as §2, §3

[5] = sc, 0.3 mg/kg, 72 hours before PTH injection
[6] = sc, 1.0 mg/kg, 72 hours before PTH injection
[7] = sc, 0.1 mg/kg, 72 hours before PTH injection
[8] = oral, 30 mg/kg, 72 hours before PTH injection
[9] = oral, 100 mg/kg, 72 hours before PTH injection
[10] = sc, 0.03 mg/kg, 72 hours before PTH injection
[11] = sc, 0.01 mg/kg, 72 hours before PTH injection
[12] = sc, 30 mg/kg, 24 hours before PTH injection
[13] = 1 mg/kg once a day 14 days, 1 mg/kg

SMILES: Cc1conc1NC(P(=O)(O)O)P(=O)(O)O [Manufacture Example 3, [(4-methyl-3-isoxazolyl)amino]methylene-bis(phosphonic acid)]
- Serum Ca++ [1, 5]: 1.45 ± 0.01 m mole/liter
- Serum Ca++ [1, 6]: 1.23 ± 0.05 m mole/liter

SMILES: O=P(O)(O)C(Nc1cc(/C=C/c2ccccc2)on1)P(=O)(O)O [Example 32]
- Serum Ca++ [1, 7]: 1.41 ± 0.02 m mole/liter
- Serum Ca++ [1, 5]: 1.27 ± 0.02 m mole/liter

SMILES: CCCCCCCc1cc(NC(P(=O)(O)O)P(=O)(O)O)no1 [Example 23]
- Serum Ca++ [1, 8]: 1.49 ± 0.00 m mole/liter
- Serum Ca++ [1, 9]: 1.41 ± 0.02 m mole/liter
- Serum Ca++ [1, 10]: 1.40 ± 0.01 m mole/liter
- Serum Ca++ [1, 7]: 1.33 ± 0.01 m mole/liter

SMILES: CC(C)=CCCc1cc(NC(P(=O)(O)O)P(=O)(O)O)no1 [Example 31, [[5-(4-methyl-3-ene)pentyl-3-isoxazolyl]amino]methylene-bis(phosphonic acid)]
- Serum Ca++ [1, 7]: 1.20 ± 0.01 m mole/liter
- Serum Ca++ [1, 5]: 1.05 ± 0.03 m mole/liter

SMILES: CC(C)CCc1cc(NC(P(=O)(O)O)P(=O)(O)O)no1 [Example 25]
- Serum Ca++ [1, 7]: 1.39 ± 0.02 m mole/liter
- Serum Ca++ [1, 6]: 1.36 ± 0.02 m mole/liter

SMILES: CCCCCc1cc(NC(P(=O)(O)O)P(=O)(O)O)no1 [Example 21, [(5-n-pentyl-3-isoxazolyl)amino]methylene-bis(phosphonic acid)]
- Thickness of Paw (average of right and left paws) (adjuvant arthritis [2]; 10 mg/kg once a day 14 days): 1317 ± 35 × 0.01 mm
- ΔB.W. (adjuvant arthritis [2]; 10 mg/kg once a day 14 days): 29.7 ± 1.1 g
- Thickness of Paw (average of right and left paws) (adjuvant arthritis [2]; 30 mg/kg once a day 14 days): 1321 ± 35 × 0.01 mm
- ΔB.W. (adjuvant arthritis [2]; 30 mg/kg once a day 14 days): 30.0 ± 1.1 g
- Thickness of Paw (average of right and left paws) (adjuvant arthritis [2]; 100 mg/kg once a day 14 days): 1119 ± 52 × 0.01 mm
- ΔB.W. (adjuvant arthritis [2]; 100 mg/kg once a day 14 days): 29.7 ± 4.5 g
- Left humerus Ashed weight ([3]; oral, 3 mg/kg): 64.4 ± 2.3 mg
- Left humerus Ashed weight / Dry weight ([3]; oral, 3 mg/kg): 54.4 ± 0.2%
- Left humerus Dry weight ([3]; oral, 3 mg/kg): 113.0 ± 3.1 mg
- Left humerus Ashed weight ([3]; oral, 10 mg/kg): 67.0 ± 1.2 mg
- Left humerus Ashed weight / Dry weight ([3]; oral, 10 mg/kg): 56.0 ± 0.4%
- Left humerus Dry weight ([3]; oral, 10 mg/kg): 115.2 ± 4.0 mg
- Left humerus Ashed weight ([3]; oral, 30 mg/kg): 65.7 ± 0.9 mg
- Left humerus Ashed weight / Dry weight ([3]; oral, 30 mg/kg): 56.5 ± 0.2%
- Left humerus Dry weight ([3]; oral, 30 mg/kg): 118.7 ± 2.0 mg
- Left humerus Ashed weight ([3]; sc, 0.01 mg/kg): 65.7 ± 0.9 mg
- Left humerus Ashed weight / Dry weight ([3]; sc, 0.01 mg/kg): 56.4 ± 0.2%
- Left humerus Dry weight ([3]; sc, 0.01 mg/kg): 116.5 ± 1.5 mg
- Left humerus Ashed weight ([3]; sc, 0.03 mg/kg): 73.6 ± 0.7 mg
- Left humerus Ashed weight / Dry weight ([3]; sc, 0.03 mg/kg): 56.9 ± 0.2%
- Left humerus Dry weight ([3]; sc, 0.03 mg/kg): 129.2 ± 1.0 mg
- Left humerus Ashed weight ([3]; sc, 0.1 mg/kg): 72.8 ± 1.8 mg
- Left humerus Ashed weight / Dry weight ([3]; sc, 0.1 mg/kg): 55.9 ± 0.4%
- Left humerus Dry weight ([3]; sc, 0.1 mg/kg): 130.1 ± 3.2 mg
- Serum Ca++ ([1]; oral, 10 mg/kg, 72 hours before PTH injection): 1.52 ± 0.02 m mole/liter
- Serum Ca++ [1, 8]: 1.36 ± 0.06 m mole/liter
- Serum Ca++ [1, 9]: 1.33 ± 0.04 m mole/liter
- Serum Ca++ [1, 11]: 1.47 ± 0.02 m mole/liter
- Serum Ca++ [1, 10]: 1.38 ± 0.01 m mole/liter
- Serum Ca++ [1, 7]: 1.22 ± 0.003 m mole/liter

SMILES: CC(O)(P(=O)(O)O)P(=O)(O)O [Etidronate, 1-hydroxyethylidene-1,1-bisphosphonic acid, reference compound]
- Serum Ca++ ([1]; sc, 10 mg/kg, 72 hours before PTH injection): 1.44 ± 0.01 m mole/liter
- Serum Ca++ ([1]; sc, 30 mg/kg, 72 hours before PTH injection): 1.40 ± 0.01 m mole/liter

SMILES: CCCCCCc1cc(NC(P(=O)(O)O)P(=O)(O)O)no1 [Example 22]
- Serum Ca++ [1, 8]: 1.44 ± 0.02 m mole/liter
- Serum Ca++ [1, 9]: 1.28 ± 0.04 m mole/liter
- Serum Ca++ [1, 11]: 1.45 ± 0.01 m mole/liter
- Serum Ca++ [1, 10]: 1.35 ± 0.01 m mole/liter
- Serum Ca++ [1, 7]: 1.21 ± 0.02 m mole/liter

SMILES: CC(C)c1cc(NC(P(=O)(O)O)P(=O)(O)O)no1 [Known Compound (note-2), [(5isopropyl-3-isoxazolyl)amino]methylenebis(phosphonic acid), reference compound]
- Serum Ca++ [1, 7]: 1.58 ± 0.00 m mole/liter
- Serum Ca++ [1, 5]: 1.49 ± 0.01 m mole/liter
- Serum Ca++ [1, 6]: 1.39 ± 0.02 m mole/liter

SMILES: CCCCc1cc(NC(P(=O)(O)O)P(=O)(O)O)no1 [Example 28, [(5-n-butyl-3-isoxazolyl)amino]methylene-bis(phosphonic acid)]
- Serum Ca++ [1, 8]: 1.46 ± 0.02 m mole/liter
- Serum Ca++ [1, 9]: 1.31 ± 0.04 m mole/liter
- Serum Ca++ [1, 7]: 1.36 ± 0.01 m mole/liter
- Serum Ca++ [1, 5]: 1.18 ± 0.02 m mole/liter

SMILES: CC(C)(C)c1cc(NC(P(=O)(O)O)P(=O)(O)O)no1 [Known Compound (note-1), [(5t-butyl-3-isoxazolyl)amino]methylenebis(phosphonic acid), reference compound]
- Serum Ca++ [1, 5]: 1.51 ± 0.03 m mole/liter
- Serum Ca++ [1, 6]: 1.43 ± 0.02 m mole/liter

SMILES: CC(=O)N(c1cc(C)on1)C(P(=O)(O)O)P(=O)(O)O [Example 12, [N-acetyl(5-methyl-3-isoxazolyl)amino]methylene-bis(phosphonic acid)]
- Serum Ca++ [1, 12]: 1.44 ± 0.02 m mole/liter

SMILES: O=P(O)(O)C(Nc1cc(C2CC2)on1)P(=O)(O)O [Example 6, [(5-cyclopropyl-3-isoxazolyl)-amino]-methylene-bis(phosphonic acid)]
- Serum Ca++ [1, 7]: 1.42 ± 0.02 m mole/liter
- Serum Ca++ [1, 5]: 1.25 ± 0.02 m mole/liter

SMILES: CCc1cc(NC(P(=O)(O)O)P(=O)(O)O)no1 [Manufacture Example 2, [(5-ethyl-3-isoxazolyl)amino]methylene-bis(phosphonic acid)]
- Difference of Bone Ash Content (b) ([3]; sc, 1.0 mg/kg once a day 14 days, nontreated minus treated humerus ashed weight): 3.0 ± 0.7 mg
- Difference of Bone Weight (a) ([3]; sc, 1.0 mg/kg once a day 14 days, nontreated minus treated humerus dry weight): 4.8 ± 1.3 mg
- Serum Ca++ [1, 8]: 1.46 ± 0.02 m mole/liter
- Serum Ca++ [1, 9]: 1.16 ± 0.07 m mole/liter
- Serum Ca++ [1, 7]: 1.39 ± 0.02 m mole/liter
- Serum Ca++ [1, 5]: 1.22 ± 0.02 m mole/liter
- Serum Ca++ [1, 12]: 1.41 ± 0.02 m mole/liter

SMILES: COc1ccc2c(c1)c(CC(=O)O)c(C)n2C(=O)c1ccc(Cl)cc1 [Indometacin, reference compound]
- Thickness of Paw (average of right and left paws) (adjuvant arthritis [2]; [13]): 956 ± 32 × 0.01 mm and 1044 ± 46 × 0.01 mm and 931 ± 26 × 0.01 mm
- ΔB.W. (adjuvant arthritis [2]; [13]): 67 ± 4 g and 51 ± 4 g and 58.2 ± 1.9 g
- ΔB.W. (adjuvant arthritis [4]): 261 ± 7 g
- Thickness of Paw, Left (adjuvant arthritis [4]; adjuvant-injected paw): 1096 ± 41 × 0.01 mm
- Thickness of Paw, Right (adjuvant arthritis [4]; opposite paw): 1028 ± 47 × 0.01 mm

SMILES: CCCc1cc(NC(P(=O)(O)O)P(=O)(O)O)no1 [Example 8]
- Serum Ca++ [1, 8]: 1.48 ± 0.02 m mole/liter
- Serum Ca++ [1, 9]: 1.35 ± 0.02 m mole/liter
- Serum Ca++ [1, 7]: 1.41 ± 0.02 m mole/liter
- Serum Ca++ [1, 5]: 1.27 ± 0.02 m mole/liter

SMILES: CCOP(=O)(O)C(Nc1cc(C)on1)P(=O)(O)O (stereo not drawn) [Example 14, ethyl [(5-methyl-3-isoxazolyl)amino]methylene-bis(phosphonate)]
- Serum Ca++ [1, 12]: 1.45 ± 0.02 m mole/liter
